Results taken from US20240076287A1, “SOLID FORMS OF A CDK2 INHIBITOR” (PFIZER INC., priority 2020, published 2024).
One block for each compound: values may come before it.

Tests used:
[1] = slurry stability experiments (solid form by PXRD); assay type: physicochemical; details: for Final Form: slurry in 2-propanol/water, Aw 0.9
Protocol: Slurry experiments were conducted as follows. The indicated starting form of PF-07104091 was transferred to a 2 mL vial. The indicated solvent or solvent mixture was added to obtain a slurry at the specified temperature (Table 14). Additional solids were added as necessary to ensure a sufficiently thick slurry. A magnetic stir bar was added and the vial was tightly capped to prevent solvent loss. The resulting slurry was left to stir at the specified temperature. Aliquots were pulled from the slurry periodically or after a certain duration. Solids were separated from the liquid by centrifuge filtration and the solids were characterized by powder x-ray diffraction. […] (ambient), and 40° C.

[2] = moisture sorption (DVS) study; assay type: physicochemical

Final Form ([1]; 4 °C): Form 3
Final Form ([1]; ambient): Form 3
Structure (SMILES): COCc1cc(C(=O)Nc2cc([C@H]3CC[C@@H](OC(=O)NC(C)C)C3)[nH]n2)n(C)n1 [Form 1, (1R,3S)-3-[3-({[3-(methoxymethyl)-1-methyl-1H-pyrazol-5-yl]carbonyl}amino)-1H-pyrazol-5-yl]cyclopentyl propan-2-ylcarbamate]

solid form of the post moisture sorption material ([2]; PXRD after DVS): no change in solid form
mass gain ([2]; at 60% RH): ~0.7%
mass gain ([2]; at 75% RH): ~1%
mass gain ([2]; at 90% RH): ~1.6%
hygroscopicity ([2]; moisture sorption (DVS)): slightly hygroscopic
Structure (SMILES): COCc1cc(C(=O)Nc2cc([C@H]3CC[C@@H](OC(=O)NC(C)C)C3)[nH]n2)n(C)n1 [PF-07104091 (Form 2), (1R,3S)-3-[3-({[3-(methoxymethyl)-1-methyl-1H-pyrazol-5-yl]carbonyl}amino)-1H-pyrazol-5-yl]cyclopentyl propan-2-ylcarbamate]

thermodynamic stability of the solid form ([1]; at 4° C., ˜25° C. (ambient), and 40° C.): thermodynamically most stable form
Structure (SMILES): COCc1cc(C(=O)Nc2cc([C@H]3CC[C@@H](OC(=O)NC(C)C)C3)[nH]n2)n(C)n1 [PF-07104091 monohydrate (Form 3), (1R,3S)-3-[3-({[3-(methoxymethyl)-1-methyl-1H-pyrazol-5-yl]carbonyl}amino)-1H-pyrazol-5-yl]cyclopentyl propan-2-ylcarbamate]
